The nature of data set [1]: in vivo. The following applies: rat, whole blood.
A short description of data set [2]: in vivo. Particulars: rat, brain/blood, 30 mg/kg.

The text below walks through data of ChEMBL document CHEMBL1800009, “Pyrazolopyridazine alpha-2-delta-1 ligands for the treatment of neuropathic pain” (Bioorg Med Chem Lett, 2010).

The clearance is the volume of plasma or blood freed of the substance per unit of time. A high value points to a high capacity for elimination. Consider `Cc1nnc(N2CCCC2)c2nn(-c3ccc(OCC(F)(F)F)cc3)c(C)c12`, for which the clearance in the data set “in vivo [1]” came out at 49 mL/min/kg.

The term Kp denotes tissue or fluid exposure divided by exposure in the circulation. As for `COC1CN(c2nnc(C)c3c(C)n(-c4ccc(Cl)cc4OC(F)(F)F)nc23)C1`, the clearance in “in vivo [1]” came to 52 mL/min/kg. The Kp in the data set “in vivo [2]” worked out at 0.94.
